The values that follow come from US20230020663A1, “SULFONAMIDE INHIBITORS AS CTPS1 INHIBITORS” (Step Pharma S.A.S., priority 2019, published 2023).

The test system of one assay is human CTPS1 versus CTPS2. The assay can be described thus: Human CTPS1 versus CTPS2 selectivity assessment by RapidFire/MS analysis. It counts as biochemical. The conditions noted are these: RapidFire/MS IC50 ratio. As for the experimental part:
Human CTPS1 versus CTPS2 Selectivity Assessment by RapidFire/MS Analysis.
The enzyme inhibitory activities against each target isoform of interest may be determined for the compounds of the invention using an optimised RapidFire high-throughput mass spectrometry (RF/MS) assay format. RF/MS assays for both human CTPS1 and CTPS2 may be performed in assay buffer consisting of 50 mM HEPES (Merck), 20 mM MgCl2, 5 mM KCl, 1 mM DTT, 0.01% Tween-20, pH to 8.0 accordingly. Human full-length active C-terminal FLAG-His-tag CTPS1 (UniProtKB—P17812, CTPS[1-591]-[…]) may be obtained from Proteros biostructures GmbH. Human full length active C-terminal FLAG-His-Avi tagged CTPS2 (UniProtKB-Q9NRF8, CTPS2 [1-586]-[…]) may be obtained from Harker Bio.
Human CTPS (1 or 2) protein may be prepared in 1× assay buffer to the final working protein concentration required for the reaction. A 2 uL volume per well of 2×CTPS (1 or 2) protein may be mixed with 40 nL of compound using acoustic (ECHO) delivery and incubated for 10 minutes at 25° C. Each isoform enzymatic reaction may be subsequently initiated by addition of 2 uL per well of a 2× substrate mix in assay buffer. For hCTPS1: ATP (0.3 mM), UTP (0.2 mM), GTP (0.07 mM) and L-glutamine (0.1 mM). For hCTPS2: ATP (0.1 mM), UTP (0.04 mM), GTP (0.03 mM) and L-glutamine (0.1 mM). Each mixture may be incubated for an appropriate amount of time per isoform within the determined linear phase of the reaction at 25′C. A 60 uL volume of stop solution (1% formic acid with 0.5 uM ^13C9-^15N3-CTP in H2O) may be added and the plate immediately heat-sealed and centrifuged for 10 minutes at 4,000 rpm. Following centrifugation, plates may be loaded onto the Agilent RapidFire microfluidic solid phase extraction system coupled to an API4000 triple quadrupole mass spectrometer (RF/MS) for analysis.
In all cases, the enzyme converts UTP to CTP. Highly specific and sensitive multiple reaction monitoring (MRM) MS methods may be optimised for the detection of the enzymatic reaction product, CTP, and the stable isotope labelled product standard ^13C9-^15N3-CTP. Readout for data analysis may be calculated as the ratio between the peak area of the product CTP and the internal standard ^13C9-^15N3-CTP. For data reporting, the following equation may be used: […]
For each screening plate, the means of the negative (DMSO) and positive control values were used for the calculation of the respective assay window (S/B) and Z′ values. The median of the respective control values was used for calculation of percent inhibition according to the following equation: […]
(§1) Percentage inhibition was then plotted against compound concentration, and the 50% inhibitory concentration (IC50) was determined from the resultant concentration-response curve.
Fold selectivity between CTPS1 and CTPS2 was subsequently calculated according to the following equation: […]

For a further assay, the target named is T1, human CTPS1 (Homo sapiens, UniProt P17812).
T1 construct: purchased Proteros biostructures GmbH
T1 sequence (P17812 1-591): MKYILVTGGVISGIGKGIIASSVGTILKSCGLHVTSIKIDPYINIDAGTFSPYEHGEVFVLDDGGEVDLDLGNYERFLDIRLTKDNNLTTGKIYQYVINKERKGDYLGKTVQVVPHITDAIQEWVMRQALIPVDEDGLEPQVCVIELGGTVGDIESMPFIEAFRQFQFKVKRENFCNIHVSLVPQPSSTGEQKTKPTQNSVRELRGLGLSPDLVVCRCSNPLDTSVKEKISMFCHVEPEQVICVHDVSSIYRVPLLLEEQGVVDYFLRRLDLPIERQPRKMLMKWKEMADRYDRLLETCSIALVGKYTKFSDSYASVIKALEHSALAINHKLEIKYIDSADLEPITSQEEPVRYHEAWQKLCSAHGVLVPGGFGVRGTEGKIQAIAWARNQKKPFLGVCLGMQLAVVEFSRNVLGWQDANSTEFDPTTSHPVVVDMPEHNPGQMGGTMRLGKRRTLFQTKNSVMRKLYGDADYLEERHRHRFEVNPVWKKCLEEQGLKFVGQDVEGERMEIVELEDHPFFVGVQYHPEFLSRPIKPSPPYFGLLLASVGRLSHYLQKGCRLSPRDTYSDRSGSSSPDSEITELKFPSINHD
In words: Human CTPS1 enzyme inhibition (ADP-Glo Max assay). It counts as biochemical. As for the experimental part:
The enzyme inhibitory activities of compounds invented against the target of interest were determined using the ADP-Glo™ Max assay (Promega, UK). Assays for human CTPS1 were performed in 1× assay buffer containing 50 mM Tris, 10 mM MgCl2, 0.01% Tween-20, pH to 8.0 accordingly. Finally, immediately before use, L-cysteine was added to the 1× assay buffer to a final concentration of 2 mM. All reagents are from Sigma-Aldrich unless specified otherwise. Human full length active C-terminal FLAG-Hiss-tag CTPS1 (UniProtKB—P17812, CTPS[1-591]-[…]) was obtained from Proteros biostructures GmbH.
3× human CTPS1 protein was prepared in 1× assay buffer to the final working protein concentration required for the reaction. A 2 uL volume per well of 3× human CTPS1 protein was mixed with 2 uL per well of 3× test compound (compound prepared in 1× assay buffer to an appropriate final 3× compound concentration respective to the concentration response curve designed for the compounds under test) for 10 minutes at 25° C. The enzymatic reaction was then initiated by addition of a 2 uL per well volume of a pre-mixed substrate mix (UltraPure ATP from ADP-Glo™ Max kit (0.31 mM), GTP (0.034 mM), UTP (0.48 mM) and L-glutamine (0.186 mM)) and the mixture was incubated for an appropriate amount of time within the determined linear phase of the reaction at 25° C. under sealed plate conditions with constant agitation at 500 revolutions per minute (rpm). ADP-Glo™ Max reagent was added for 60 minutes (6 μL per well) and subsequently ADP-Glo™ Max development reagent was added for 60 minutes (12 uL per well) prior to signal detection in a microplate reader (EnVision® Multilabel Reader, Perkin Elmer). Following each reagent addition over the course of the assay, assay plates were pulse centrifuged for 30 seconds at 500 rpm.
In all cases, the enzyme converts ATP to ADP and the ADP-Glo™ Max reagent subsequently depletes any remaining endogenous ATP in the reaction system. The ADP-Glo™ Max detection reagent converts the ADP that has been enzymatically produced back into ATP and using ATP as a substrate together with luciferin for the enzyme luciferase, light is generated which produces a detectable luminescence. […] The percentage inhibition produced by each concentration of compound was calculated using the equation shown below: […]
as §1
Background: ADP-Glo turns the ADP formed in a reaction into a luminescent signal.

Where [1] appears, read: Table 25, compounds wherein R1 is C1-5fluoroalkyl, read-out: CTPS1 (Human CTPS1 Enzyme Inhibition data grouped by potency range).

Read-outs that look alike come from different tables or passages of the source. A value given as a limit tells only on which side of the number the result lay.

Take `CC(C)Oc1cncc(-c2ccc(NC(=O)C(C)(C)c3ccnc(NS(=O)(=O)C4CC4)n3)nc2)n1` [Example P9]: in the assay with human CTPS1 versus CTPS2 (Table 26), the “Selectivity (fold selectivity between CTPS1 and CTPS2)” value is given as “+++ (>60 fold (+++))”. Also, the IC50 at human CTPS1 (Table 23, read-out: CTPS1 (Human CTPS1 Enzyme Inhibition data grouped by potency range)) was at most 100 nM.

Turning to `CCOc1cncc(-c2ccc(NC(=O)C3(c4ccnc(NS(=O)(=O)C5CC5)n4)CCC4(CC3)OCCO4)nc2)n1` [Example P244, 8-(2-(cyclopropanesulfonamido)pyrimidin-4-yl)-N-(5-(6-ethoxypyrazin-2-yl)pyridin-2-yl)-1,4-dioxaspiro[4.5]decane-8-carboxamide], in the assay on human CTPS1 versus CTPS2 (Table 27), the “Selectivity (fold selectivity between CTPS1 and CTPS2)” value is on record as “+++ (>60 fold (+++))”.

On to `CCOc1cncc(-c2ccc(NC(=O)C3(c4ccnc(NS(=O)(=O)N(C)C)n4)CCOCC3)nc2)n1` [Example P248], for which the “Selectivity (fold selectivity between CTPS1 and CTPS2)” value in the assay on human CTPS1 versus CTPS2 (Table 27) is on record as “+++ (>60 fold (+++))”. Moreover, the IC50 at human CTPS1 (Table 24, read-out: CTPS1 (Human CTPS1 Enzyme Inhibition data grouped by potency range)) is 100 to 1000 nM.

`CCOc1cncc(-c2ccc(NC(=O)C3(c4ccnc(NS(=O)(=O)C5CC5)n4)CCN(S(C)(=O)=O)CC3)nc2)n1` [Example P251]: in the assay with human CTPS1 versus CTPS2 (Table 27), the “Selectivity (fold selectivity between CTPS1 and CTPS2)” value was “+++ (>60 fold (+++))”.

In the case of `CCOc1cncc(-c2ccc(NC(=O)C3(c4ccnc(NS(=O)(=O)CC(F)F)n4)CCOCC3)nc2)n1` [Example P271, 4-(2-((2,2-difluoroethyl)sulfonamido)pyrimidin-4-yl)-N-(5-(6-ethoxypyrazin-2-yl)pyridin-2-yl)tetrahydro-2H-pyran-4-carboxamide], at human CTPS1 (setting [1]), the IC50 was at most 100 nM.

`CCOc1cncc(-c2ccc(NC(=O)C(F)(CC)c3ccnc(NS(=O)(=O)CC(F)F)n3)nc2)n1` (centres unmarked) [Example P284, 2-(2-((2,2-difluoroethyl)sulfonamido)pyrimidin-4-yl)-N-(5-(6-ethoxypyrazin-2-yl)pyridin-2-yl)-2-fluorobutanamide]: the IC50 on human CTPS1 (setting [1]) was at most 100 nM.
